Experimental data reported in patent publication US20260262643A1, “HERBICIDAL BENZOXAZINES” (FMC CORPORATION, priority 2022, published 2026).

Tests used:
corn [1] = test: Test C preemergence; format: in vivo, Zea mays; settings: preemergence, 0 to 100 scale (0 no effect, 100 complete control)
Method in brief: (§1)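 Seeds sown in loam soil–sand blend received a directed preemergence soil spray of test chemical in non-phytotoxic solvent with surfactant; postemergence plants (2–10 cm, one- to two-leaf stage) were sprayed with the same formulation. Greenhouse-held 10 days, then visually rated for injury versus untreated controls, 0 (no effect) to 100 (complete control).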

pigweed, palmer [2] = test: Test C preemergence; format: in vivo, Amaranthus palmeri; settings: preemergence, 0 to 100 scale (0 no effect, 100 complete control)
Method in brief: as §1

oat, wild [3] = test: Test C postemergence; format: in vivo, Avena fatua; settings: 10 days, 0 to 100 scale (0 no effect, 100 complete control)
Method in brief: as §1

soybean [4] = test: Test C preemergence; format: in vivo, Glycine max; settings: preemergence, 0 to 100 scale (0 no effect, 100 complete control)
Method in brief: as §1

sedge, umbrella = test: Test D flooded paddy test; format: in vivo, Cyperus difformis; settings: 250 g ai/ha, applied to paddy water, visual rating after 13 to 14 days, scale 0 to 100 (0 no effect, 100 complete control)
Method in brief: (§2)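 Visual ratings from 0, meaning no effect, to 100, meaning complete control, were assigned against untreated controls 13 to 14 days after compounds were added to the floodwater of pots kept 3 cm deep, with plants at the 2-leaf stage.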

blackgrass [5] = test: Test C preemergence; format: in vivo, Alopecurus myosuroides; settings: preemergence, 0 to 100 scale (0 no effect, 100 complete control)
Method in brief: as §1

pigweed, palmer [6] = test: Test C postemergence; format: in vivo, Amaranthus palmeri; settings: 10 days, 0 to 100 scale (0 no effect, 100 complete control)
Method in brief: as §1

ragweed [7] = test: Test C preemergence; format: in vivo, Ambrosia artemisiifolia; settings: preemergence, 0 to 100 scale (0 no effect, 100 complete control)
Method in brief: as §1

oat, wild [8] = test: Test C preemergence; format: in vivo, Avena fatua; settings: preemergence, 0 to 100 scale (0 no effect, 100 complete control)
Method in brief: as §1

ryegrass, Italian [9] = test: Test C preemergence; format: in vivo, Lolium multiflorum; settings: preemergence, 0 to 100 scale (0 no effect, 100 complete control)
Method in brief: as §1

blackgrass [10] = test: Test C postemergence; format: in vivo, Alopecurus myosuroides; settings: 10 days, 0 to 100 scale (0 no effect, 100 complete control)
Method in brief: as §1

wheat [11] = test: Test C postemergence; format: in vivo, Triticum aestivum; settings: 10 days, 0 to 100 scale (0 no effect, 100 complete control)
Method in brief: as §1

kochia [12] = test: Test C postemergence; format: in vivo, Bassia scoparia; settings: 10 days, 0 to 100 scale (0 no effect, 100 complete control)
Method in brief: as §1

wheat [13] = test: Test C preemergence; format: in vivo, Triticum aestivum; settings: preemergence, 0 to 100 scale (0 no effect, 100 complete control)
Method in brief: as §1

ducksalad = test: Test D flooded paddy test; format: in vivo, Heteranthera limosa; settings: 250 g ai/ha, applied to paddy water, visual rating after 13 to 14 days, scale 0 to 100 (0 no effect, 100 complete control)
Method in brief: as §2

soybean [14] = test: Test C postemergence; format: in vivo, Glycine max; settings: 10 days, 0 to 100 scale (0 no effect, 100 complete control)
Method in brief: as §1

rice = test: Test D flooded paddy test; format: in vivo, Oryza sativa; settings: 250 g ai/ha, applied to paddy water, visual rating after 13 to 14 days, scale 0 to 100 (0 no effect, 100 complete control)
Method in brief: as §2

ragweed [15] = test: Test C postemergence; format: in vivo, Ambrosia artemisiifolia; settings: 10 days, 0 to 100 scale (0 no effect, 100 complete control)
Method in brief: as §1

barnyardgrass [16] = test: Test C preemergence; format: in vivo, Echinochloa crusgalli; settings: preemergence, 0 to 100 scale (0 no effect, 100 complete control)
Method in brief: as §1

galium = test: Test C postemergence; format: in vivo, Galium aparine; settings: 10 days, 0 to 100 scale (0 no effect, 100 complete control)
Method in brief: as §1

horseweed = test: Test C postemergence; format: in vivo, Erigeron canadensis; settings: 10 days, 0 to 100 scale (0 no effect, 100 complete control)
Method in brief: as §1

green foxtail [17] = test: Test C postemergence; format: in vivo, Setaria viridis; settings: 10 days, 0 to 100 scale (0 no effect, 100 complete control)
Method in brief: as §1

corn [18] = test: Test C postemergence; format: in vivo, Zea mays; settings: 10 days, 0 to 100 scale (0 no effect, 100 complete control)
Method in brief: as §1

barnyardgrass [19] = test: Test D flooded paddy test; format: in vivo, Echinochloa crus-galli; settings: 250 g ai/ha, applied to paddy water, visual rating after 13 to 14 days, scale 0 to 100 (0 no effect, 100 complete control)
Method in brief: as §2

ryegrass, Italian [20] = test: Test C postemergence; format: in vivo, Lolium multiflorum; settings: 10 days, 0 to 100 scale (0 no effect, 100 complete control)
Method in brief: as §1

kochia [21] = test: Test C preemergence; format: in vivo, Bassia scoparia; settings: preemergence, 0 to 100 scale (0 no effect, 100 complete control)
Method in brief: as §1

barnyardgrass [22] = test: Test C postemergence; format: in vivo, Echinochloa crusgalli; settings: 10 days, 0 to 100 scale (0 no effect, 100 complete control)
Method in brief: as §1

green foxtail [23] = test: Test C preemergence; format: in vivo, Setaria viridis; settings: preemergence, 0 to 100 scale (0 no effect, 100 complete control)
Method in brief: as §1

SMILES: COc1ncn(-c2cccc(C(=O)N3C[C@H](C)Oc4c(Cl)cccc43)c2)n1 [Compound 310]
- Corn plant response rating (corn [1]; 500 g ai/ha): 0
- Corn plant response rating (corn [1]; Test C, 125 g ai/ha): 0
- Pigweed, Palmer plant response rating (pigweed, palmer [2]; 500 g ai/ha): 100
- Pigweed, Palmer plant response rating (pigweed, palmer [2]; Test C, 125 g ai/ha): 80
- Plant response rating, Oat, Wild (oat, wild [3]; 500 g ai/ha, postemergence): 40
- Plant response rating, Oat, Wild (oat, wild [3]; Postemergence, 125 g ai/ha): 0
- Soybean plant response rating (soybean [4]; 500 g ai/ha): 0
- Soybean plant response rating (soybean [4]; Test C, 125 g ai/ha): 40
- Plant response rating, Sedge, Umbrella (Flood) (sedge, umbrella): 80
- Blackgrass plant response rating (blackgrass [5]; 500 g ai/ha): 50
- Blackgrass plant response rating (blackgrass [5]; Test C, 125 g ai/ha): 10
- Plant response rating, Pigweed, Palmer (pigweed, palmer [6]; 500 g ai/ha, postemergence): 90
- Plant response rating, Pigweed, Palmer (pigweed, palmer [6]; Postemergence, 125 g ai/ha): 70
- Ragweed plant response rating (ragweed [7]; 500 g ai/ha): 0
- Ragweed plant response rating (ragweed [7]; Test C, 125 g ai/ha): 0
- Oat, Wild plant response rating (oat, wild [8]; 500 g ai/ha): 60
- Oat, Wild plant response rating (oat, wild [8]; Test C, 125 g ai/ha): 0
- Ryegrass, Italian plant response rating (ryegrass, Italian [9]; 500 g ai/ha): 80
- Ryegrass, Italian plant response rating (ryegrass, Italian [9]; Test C, 125 g ai/ha): 30
- Plant response rating, Blackgrass (blackgrass [10]; 500 g ai/ha, postemergence): 90
- Plant response rating, Blackgrass (blackgrass [10]; Postemergence, 125 g ai/ha): 50
- Plant response rating, Wheat (wheat [11]; 500 g ai/ha, postemergence): 50
- Plant response rating, Wheat (wheat [11]; Postemergence, 125 g ai/ha): 10
- Plant response rating, Kochia (kochia [12]; 500 g ai/ha, postemergence): 90
- Plant response rating, Kochia (kochia [12]; Postemergence, 125 g ai/ha): 70
- Wheat plant response rating (wheat [13]; 500 g ai/ha): 0
- Wheat plant response rating (wheat [13]; Test C, 125 g ai/ha): 0
- Plant response rating, Ducksalad (Flood) (ducksalad): 75
- Plant response rating, Soybean (soybean [14]; 500 g ai/ha, postemergence): 100
- Plant response rating, Soybean (soybean [14]; Postemergence, 125 g ai/ha): 90
- Plant response rating, Rice (Flood) (rice): 0
- Plant response rating, Ragweed (ragweed [15]; 500 g ai/ha, postemergence): 50
- Plant response rating, Ragweed (ragweed [15]; Postemergence, 125 g ai/ha): 30
- Barnyardgrass plant response rating (barnyardgrass [16]; 500 g ai/ha): 80
- Barnyardgrass plant response rating (barnyardgrass [16]; Test C, 125 g ai/ha): 20
- Plant response rating, Galium (galium; 500 g ai/ha, postemergence): 90
- Plant response rating, Galium (galium; Postemergence, 125 g ai/ha): 90
- Plant response rating, Horseweed (horseweed; 500 g ai/ha, postemergence): 30
- Plant response rating, Horseweed (horseweed; Postemergence, 125 g ai/ha): 0
- Plant response rating, Foxtail, Green (green foxtail [17]; 500 g ai/ha, postemergence): 50
- Plant response rating, Foxtail, Green (green foxtail [17]; Postemergence, 125 g ai/ha): 50
- Plant response rating, Corn (corn [18]; 500 g ai/ha, postemergence): 60
- Plant response rating, Corn (corn [18]; Postemergence, 125 g ai/ha): 10
- Plant response rating, Barnyardgrass (Flood) (barnyardgrass [19]): 10
- Plant response rating, Ryegrass, Italian (ryegrass, Italian [20]; 500 g ai/ha, postemergence): 80
- Plant response rating, Ryegrass, Italian (ryegrass, Italian [20]; Postemergence, 125 g ai/ha): 30
- Kochia plant response rating (kochia [21]; 500 g ai/ha): 80
- Kochia plant response rating (kochia [21]; Test C, 125 g ai/ha): 50
- Plant response rating, Barnyardgrass (barnyardgrass [22]; 500 g ai/ha, postemergence): 80
- Plant response rating, Barnyardgrass (barnyardgrass [22]; Postemergence, 125 g ai/ha): 20
- Foxtail, Green plant response rating (green foxtail [23]; 500 g ai/ha): 100
- Foxtail, Green plant response rating (green foxtail [23]; Test C, 125 g ai/ha): 100
